Active and inactive are the calls of the source. No cut-off for these calls is given here.
Legend:
[1] = molecular target: T1, Cholinesterase (Equus caballus, UniProt P81908)
Description: Inhibition of equine serum BChE using butylthiocholine iodide as substrate incubated for 10 mins followed by substrate addition by Ellman's method

[2] = molecular target: Acetylcholinesterase (Homo sapiens, UniProt P22303)
Description: Inhibition of human erythrocyte AChE using acetylthiocholine iodide as substrate incubated for 10 mins followed by substrate addition by Ellman's method

[3] = molecular target: Cholinesterase (Equus caballus) (UniProt P81908); experiment: Inhibition of equine serum BChE at 20 uM using butylthiocholine iodide as substrate incubated for 10 mins followed by substrate addition by Ellman's method relative to control
[4] = molecular target: T2, Liver carboxylesterase (Sus scrofa, UniProt Q29550)
T2 sequence (Q29550 whole entry): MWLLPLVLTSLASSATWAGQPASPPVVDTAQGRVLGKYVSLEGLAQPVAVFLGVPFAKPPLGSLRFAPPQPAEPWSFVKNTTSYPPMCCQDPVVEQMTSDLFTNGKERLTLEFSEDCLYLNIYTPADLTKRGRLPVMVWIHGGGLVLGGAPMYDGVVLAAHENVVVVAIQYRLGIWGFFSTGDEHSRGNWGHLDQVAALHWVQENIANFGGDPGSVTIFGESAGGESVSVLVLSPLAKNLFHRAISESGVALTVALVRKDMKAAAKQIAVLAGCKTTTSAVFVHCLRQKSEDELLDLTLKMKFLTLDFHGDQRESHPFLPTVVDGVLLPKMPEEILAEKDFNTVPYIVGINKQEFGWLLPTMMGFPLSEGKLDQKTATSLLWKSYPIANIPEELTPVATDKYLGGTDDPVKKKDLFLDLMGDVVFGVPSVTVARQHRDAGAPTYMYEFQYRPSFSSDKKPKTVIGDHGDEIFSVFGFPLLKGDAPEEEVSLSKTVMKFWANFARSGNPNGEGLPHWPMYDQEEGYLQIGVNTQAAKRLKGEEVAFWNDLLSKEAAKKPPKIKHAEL
Description: Inhibition of porcine liver carboxylesterase using 4-nitrophenol acetate as substrate incubated for 10 mins followed by substrate addition by spectrophotometric method

[5] = molecular target: T2, Liver carboxylesterase; experiment: in vitro; conditions: pig, porcine liver carboxylesterase, probe 4-nitrophenol acetate
Description: Inhibition of porcine liver carboxylesterase at 20 uM using 4-nitrophenol acetate as substrate incubated for 10 mins followed by substrate addition by spectrophotometric method relative to control

[6] = molecular target: T1, Cholinesterase; experiment: Competitive inhibition of equine serum BChE using butylthiocholine iodide as substrate incubated for 10 mins followed by substrate addition by Lineweaver-Burk double-reciprocal plot analysis
[7] = molecular target: Cholinesterase (Equus caballus) (UniProt P81908); experiment: Non-competitive inhibition of equine serum BChE using butylthiocholine iodide as substrate incubated for 10 mins followed by substrate addition by Lineweaver-Burk double-reciprocal plot analysis

T1 sequence (P81908 whole entry): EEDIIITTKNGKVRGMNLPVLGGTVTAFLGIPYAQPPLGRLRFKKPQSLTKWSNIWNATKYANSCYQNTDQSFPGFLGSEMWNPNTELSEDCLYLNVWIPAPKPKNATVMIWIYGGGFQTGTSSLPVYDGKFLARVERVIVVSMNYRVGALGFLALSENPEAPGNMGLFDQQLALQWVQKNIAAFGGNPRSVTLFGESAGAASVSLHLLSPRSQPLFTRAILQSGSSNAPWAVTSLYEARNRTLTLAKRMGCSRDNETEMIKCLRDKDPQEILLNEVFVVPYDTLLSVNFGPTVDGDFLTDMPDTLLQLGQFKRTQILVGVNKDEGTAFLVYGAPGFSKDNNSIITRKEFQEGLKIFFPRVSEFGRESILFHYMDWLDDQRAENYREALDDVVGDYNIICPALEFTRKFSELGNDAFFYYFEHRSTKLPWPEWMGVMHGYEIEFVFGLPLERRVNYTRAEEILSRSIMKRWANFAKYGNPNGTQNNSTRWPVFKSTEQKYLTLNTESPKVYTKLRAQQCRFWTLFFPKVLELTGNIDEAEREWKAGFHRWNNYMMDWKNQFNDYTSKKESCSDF
Cholinesterase (Equus caballus), sequence (P81908 whole entry): as above
Acetylcholinesterase, sequence (P22303 whole entry): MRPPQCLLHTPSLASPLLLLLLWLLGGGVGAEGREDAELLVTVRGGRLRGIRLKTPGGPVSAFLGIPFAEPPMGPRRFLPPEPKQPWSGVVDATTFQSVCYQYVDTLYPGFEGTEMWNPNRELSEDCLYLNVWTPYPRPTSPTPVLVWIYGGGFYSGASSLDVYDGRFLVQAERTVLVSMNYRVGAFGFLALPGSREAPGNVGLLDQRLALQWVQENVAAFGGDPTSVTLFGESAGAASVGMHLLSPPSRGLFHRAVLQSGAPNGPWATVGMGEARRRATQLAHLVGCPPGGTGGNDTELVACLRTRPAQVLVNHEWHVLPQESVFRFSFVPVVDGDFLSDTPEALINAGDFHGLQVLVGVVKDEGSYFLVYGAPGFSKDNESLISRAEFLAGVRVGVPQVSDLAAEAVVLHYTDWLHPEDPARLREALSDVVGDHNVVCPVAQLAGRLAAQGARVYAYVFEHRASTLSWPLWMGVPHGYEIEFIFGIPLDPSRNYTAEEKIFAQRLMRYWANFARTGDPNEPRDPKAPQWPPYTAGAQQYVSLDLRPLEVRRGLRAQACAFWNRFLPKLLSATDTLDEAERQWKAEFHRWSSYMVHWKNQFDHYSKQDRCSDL

SMILES | IC50 [1] | IC50 [2] | inhibition [3] | IC50 [4] | inhibition at 10 min, 20 µM [5] | Ki [6] | alphaKi [7]
C=Cc1oc2ccc(Br)cc2c(=O)c1CN(Cc1ccccc1)/C(=C/C(=O)OC)C(=O)OC | > 20 µM | > 20 µM | 21.9% | > 20 µM | 15.2% |  | 
CN1CCc2oc3ccc(Br)cc3c(=O)c2C1 | > 20 µM | > 20 µM | 4.2% |  |  |  | 
O=[N+]([O-])c1ccc(OP(=O)(O)Oc2ccc([N+](=O)[O-])cc2)cc1 |  |  | inactive |  |  |  | 
O=c1c2c(oc3ccc(Br)cc13)CCN(Cc1ccccc1)C2 | > 20 µM | > 20 µM | 3.3% | > 20 µM | 31.2% |  | 
CCOc1cccc2c(=O)c3c(oc12)CCN(Cc1ccccc1)C3 | > 20 µM | > 20 µM | 13.2% |  |  |  | 
COC(=O)/C=C(\C(=O)OC)N1CCc2oc3ccccc3c(=O)c2C1 | > 20 µM |  | 7.5% | > 20 µM | 19.8% |  | 
CCOc1cccc2c(=O)c3c(oc12)CCN(/C(=C/C(=O)OC)C(=O)OC)C3 | > 20 µM | > 20 µM | 20.7% | > 20 µM | 3.5% |  | 
C=Cc1oc2ccc(Br)cc2c(=O)c1CN(C)/C=C/C(=O)OC | > 20 µM | > 20 µM | 14.1% | > 20 µM | 10.5% |  | 
C=Cc1oc2c(OCC)cccc2c(=O)c1CN(/C=C/C(=O)OC)Cc1ccccc1 | > 20 µM |  | 16.3% | > 20 µM | 25.9% |  | 
C=Cc1oc2c(OCC)cccc2c(=O)c1CN(/C=C/C(C)=O)Cc1ccccc1 | 50.1 µM |  |  |  |  |  | 
CN1CCc2oc3ccccc3c(=O)c2C1 |  |  | inactive | > 20 µM | 6.4% |  | 
C=Cc1oc2ccc(Br)cc2c(=O)c1CN(/C=C/C(=O)OC)Cc1ccccc1 | 2.27 µM | > 20 µM |  | > 20 µM | 22.4% | 1.55 µM | 6.9 µM
C=Cc1oc2ccccc2c(=O)c1CN(/C=C/C(C)=O)Cc1ccccc1 | 4.75 µM | > 20 µM |  | > 20 µM | 10% | 2.12 µM | 9.14 µM
O=c1c2c(oc3ccccc13)CCN(Cc1ccccc1)C2 | > 20 µM | > 20 µM | 13% |  |  |  | 
C=Cc1oc2c(OCC)cccc2c(=O)c1CN(Cc1ccccc1)/C(=C/C(=O)OC)C(=O)OC | > 20 µM |  | 11.2% | > 20 µM | 14.4% |  | 
CCOc1cccc2c(=O)c3c(oc12)CCN(C)C3 |  | > 20 µM | inactive | > 20 µM | 7.6% |  | 
C=Cc1oc2ccccc2c(=O)c1CN(/C=C/C(=O)OC)Cc1ccccc1 | 6.31 µM | > 20 µM |  | > 20 µM | 23.6% | 1.79 µM | 1.94 µM
COC(=O)/C=C(\C(=O)OC)N1CCc2oc3ccc(Br)cc3c(=O)c2C1 | > 20 µM | > 20 µM | 4.3% | > 20 µM | 5.1% |  | 
C=Cc1oc2c(OCC)cccc2c(=O)c1CN(C)/C=C/C(=O)OC |  |  | inactive | > 20 µM | 7.9% |  | 
C=Cc1oc2ccccc2c(=O)c1CN(Cc1ccccc1)/C(=C/C(=O)OC)C(=O)OC | 13.8 µM | > 20 µM |  | > 20 µM | 26.4% |  | 
C=Cc1oc2ccccc2c(=O)c1CN(C)/C=C/C(=O)OC | > 20 µM |  | 18.4% | > 20 µM | 6.3% |  | 
C=Cc1oc2ccc(Br)cc2c(=O)c1CN(/C=C/C(C)=O)Cc1ccccc1 | 13.5 µM | > 20 µM |  | > 20 µM | 4.6% |  | 
